Data: PubChem BioAssay AID1963865 (Molecular Pharmacology Branch, DTP, NCI, 2024)

Tested on: KRAS PDC multicell spheroid viability
Assay: Anticancer human tumor 825966-067-R-J1-PDC patient-derived colon carcinoma cell line growth inhibition [KRAS2]
Settings: for IC50: curve of first compound; for viability, T/C: stronger effect = lower value
Outline: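 KRAS-mutant tumor cells were grown as spheroids with HUVEC endothelial cells and human MSCs as stroma. Targeted agents were tested alone and with KRAS pathway inhibitors. Doses started at or near clinical Cmax, or 10 microM, descending half-log.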

[1] = second compound 0.1 µM, first compound 0.01 µM
[2] = second compound 0.1 µM, first compound 0.0316 µM
[3] = second compound 0.1 µM, first compound 0.1 µM
[4] = second compound 0.1 µM, first compound 0.316 µM
[5] = second compound 0.1 µM, first compound 1 µM
[6] = second compound 0.1 µM, first compound 3.16 µM
[7] = second compound 0.316 µM, first compound 0.01 µM
[8] = second compound 0.316 µM, first compound 0.0316 µM
[9] = second compound 0.316 µM, first compound 0.1 µM
[10] = second compound 0.316 µM, first compound 0.316 µM
[11] = second compound 0.316 µM, first compound 1 µM
[12] = second compound 0.316 µM, first compound 3.16 µM
[13] = second compound 1 µM, first compound 0.01 µM
[14] = second compound 1 µM, first compound 0.0316 µM
[15] = second compound 1 µM, first compound 0.1 µM
[16] = second compound 1 µM, first compound 0.316 µM
[17] = second compound 1 µM, first compound 1 µM
[18] = second compound 1 µM, first compound 3.16 µM
[19] = second compound 3.16 µM, first compound 0.01 µM
[20] = second compound 3.16 µM, first compound 0.0316 µM
[21] = second compound 3.16 µM, first compound 0.1 µM
[22] = second compound 3.16 µM, first compound 0.316 µM
[23] = second compound 3.16 µM, first compound 1 µM
[24] = second compound 3.16 µM, first compound 3.16 µM
[25] = second compound 10 µM, first compound 0.01 µM
[26] = second compound 10 µM, first compound 0.0316 µM
[27] = second compound 10 µM, first compound 0.1 µM
[28] = second compound 10 µM, first compound 0.316 µM
[29] = second compound 10 µM, first compound 1 µM
[30] = second compound 10 µM, first compound 3.16 µM
[31] = second compound 0.1 µM, first compound 10 µM
[32] = second compound 0.316 µM, first compound 10 µM
[33] = second compound 1 µM, first compound 10 µM
[34] = second compound 3.16 µM, first compound 10 µM
[35] = second compound 10 µM, first compound 10 µM
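Note: spheroids exposed to compounds for 7 days.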
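Throughout, for viability, T/C: 100% = DMSO vehicle control viability.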

| SMILES | IC50 (second compound 0.1 µM) | IC50 (second compound 0.316 µM) | IC50 (second compound 1 µM) | IC50 (second compound 3.16 µM) | IC50 (second compound 10 µM) | viability, T/C [2] | viability, T/C [3] | viability, T/C [4] | viability, T/C [5] | viability, T/C [8] | viability, T/C [9] | viability, T/C [10] | viability, T/C [11] | viability, T/C [14] | viability, T/C [15] | viability, T/C [16] | viability, T/C [17] | viability, T/C [20] | viability, T/C [21] | viability, T/C [22] | also measured |
| --- | --- | --- | --- | --- | --- | --- | --- | --- | --- | --- | --- | --- | --- | --- | --- | --- | --- | --- | --- | --- | --- |
| CC1COCCN1c1cc(-c2ccnn2C)c2ccnc(-c3ccn[nH]3)c2n1 (stereo not given) + CNCc1ccccc1-c1csc(C(C)Nc2nc(C)nc3cc(OC)c(OC)cc23)c1 | 244 nM | 278 nM | 122 nM | < 10 nM | < 10 nM | 129% | 89.2% | 34.4% | 44.4% | 131% | 75.8% | 54% | 49.5% | 91.5% | 56.8% | 18.3% | 14.2% | 8.68% | 1.56% | 2.53% | viability, T/C [1]: 111%; viability, T/C [6]: 37.3%; viability, T/C [7]: 132%; viability, T/C [12]: 30.3%; viability, T/C [13]: 104%; viability, T/C [18]: 2.54%; viability, T/C [19]: 29.4%; viability, T/C [23]: 0.56%; viability, T/C [24]: 0.39%; viability, T/C [25]: 0.18%; viability, T/C [26]: 0.15%; viability, T/C [27]: 0.12%; viability, T/C [28]: 0.52%; viability, T/C [29]: 0.12%; viability, T/C [30]: 0.19% |
| CC1OCC2(CCN(c3cnc(Sc4ccnc(N)c4Cl)c(N)n3)CC2)C1N (stereo not given) + CNCc1ccccc1-c1csc(C(C)Nc2nc(C)nc3cc(OC)c(OC)cc23)c1 | 7620 nM | 6900 nM | 6710 nM | 1140 nM | < 31.6 nM | 109% | 107% | 101% | 94.3% | 84.8% | 107% | 107% | 88% | 113% | 99.9% | 94.4% | 96.4% | 96.4% | 36.9% | 92.7% | viability, T/C [6]: 101%; viability, T/C [31]: 34.4%; viability, T/C [12]: 105%; viability, T/C [32]: 26.8%; viability, T/C [18]: 109%; viability, T/C [33]: 22.1%; viability, T/C [23]: 30%; viability, T/C [24]: 49.9%; viability, T/C [34]: 0.35%; viability, T/C [26]: 0.28%; viability, T/C [27]: 0.27%; viability, T/C [28]: 0.35%; viability, T/C [29]: 0.24%; viability, T/C [30]: 0.22%; viability, T/C [35]: 0.25% |
| CCN1CCN(Cc2ccc(Nc3ncc(F)c(-c4cc(F)c5nc(C)n(C(C)C)c5c4)n3)nc2)CC1 + CNCc1ccccc1-c1csc(C(C)Nc2nc(C)nc3cc(OC)c(OC)cc23)c1 | > 1000 nM | > 1000 nM | 705 nM | 68 nM | < 3.16 nM | 126% | 137% | 174% | 123% | 115% | 129% | 176% | 78% | 154% | 173% | 147% | 10.1% | 88.5% | 30.9% | 0.29% | viability, T/C (second compound 0.1 µM, first compound 0.00316 µM): 98.2%; viability, T/C [1]: 99.1%; viability, T/C (second compound 0.316 µM, first compound 0.00316 µM): 101%; viability, T/C [7]: 128%; viability, T/C (second compound 1 µM, first compound 0.00316 µM): 111%; viability, T/C [13]: 122%; viability, T/C (second compound 3.16 µM, first compound 0.00316 µM): 110%; viability, T/C [19]: 127%; viability, T/C [23]: 0.27%; viability, T/C (second compound 10 µM, first compound 0.00316 µM): 0.26%; viability, T/C [25]: 0.29%; viability, T/C [26]: 0.22%; viability, T/C [27]: 0.18%; viability, T/C [28]: 0.15%; viability, T/C [29]: 0.22% |
| CCNC(=O)CC1N=C(c2ccc(Cl)cc2)c2cc(OC)ccc2-n2c(C)nnc21 (stereo not given) + CNCc1ccccc1-c1csc(C(C)Nc2nc(C)nc3cc(OC)c(OC)cc23)c1 | > 10000 nM | > 10000 nM | > 10000 nM | < 31.6 nM | < 31.6 nM | 90.3% | 113% | 118% | 91.4% | 112% | 113% | 120% | 90.9% | 117% | 113% | 122% | 111% | 27.8% | 0.64% | 0.53% | viability, T/C [6]: 82.2%; viability, T/C [31]: 65%; viability, T/C [12]: 83.1%; viability, T/C [32]: 71.5%; viability, T/C [18]: 96.6%; viability, T/C [33]: 51.1%; viability, T/C [23]: 0.19%; viability, T/C [24]: 2.33%; viability, T/C [34]: 0.59%; viability, T/C [26]: 0.15%; viability, T/C [27]: 0.15%; viability, T/C [28]: 0.17%; viability, T/C [29]: 0.16%; viability, T/C [30]: 0.14%; viability, T/C [35]: 0.37% |
| Cn1nccc1Nc1nccc(-c2cc3c(s2)C(C)(C)N(CCN2CCOCC2)C3=O)n1 + CNCc1ccccc1-c1csc(C(C)Nc2nc(C)nc3cc(OC)c(OC)cc23)c1 | > 10000 nM | > 10000 nM | 5040 nM | 53.1 nM | < 31.6 nM | 108% | 96.9% | 123% | 125% | 94.8% | 103% | 137% | 75.6% | 118% | 137% | 134% | 98.1% | 78% | 13.4% | 12.4% | viability, T/C [6]: 96.1%; viability, T/C [31]: 82.3%; viability, T/C [12]: 82.2%; viability, T/C [32]: 75.8%; viability, T/C [18]: 66.8%; viability, T/C [33]: 29%; viability, T/C [23]: 0.56%; viability, T/C [24]: 0.23%; viability, T/C [34]: 0.47%; viability, T/C [26]: 0.39%; viability, T/C [27]: 0.21%; viability, T/C [28]: 0.16%; viability, T/C [29]: 0.16%; viability, T/C [30]: 2.28%; viability, T/C [35]: 0.24% |
| CC(=O)OC12COC1CC(O)C1(C)C(=O)C(O)C3=C(C)C(OC(=O)C(O)C(NC(=O)OC(C)(C)C)c4ccccc4)CC(O)(C(OC(=O)c4ccccc4)C21)C3(C)C (stereo not given) + COc1cc2nc(C)nc(NC(C)c3cc(N)cc(C(F)(F)F)c3)c2cc1OC1CCOC1 | < 10 nM | < 10 nM | < 10 nM | < 10 nM | < 10 nM | 24.6% | 35.8% | 17.3% | 26.8% | 29.3% | 23.1% | 38.4% | 24% | 29.3% | 27.6% | 18.7% | 24.7% | 13.4% | 29.2% | 16.4% | viability, T/C [1]: 18.9%; viability, T/C [6]: 34.5%; viability, T/C [7]: 23.8%; viability, T/C [12]: 44%; viability, T/C [13]: 16.9%; viability, T/C [18]: 29.6%; viability, T/C [19]: 16.6%; viability, T/C [23]: 21.3%; viability, T/C [24]: 25.1%; viability, T/C [25]: 11.7%; viability, T/C [26]: 15%; viability, T/C [27]: 19.3%; viability, T/C [28]: 14.2%; viability, T/C [29]: 20.9%; viability, T/C [30]: 12.4% |
